# According to US20230024842A1, “MUPS TABLET COMPRISING RIBOFLAVIN” (DSM IP Assets B.V., priority 2019, published 2023):
# Assay: Absorption of the water solution after 15 min (coloration / riboflavin release from coated particles)
# Format: physicochemical
# Settings: amount containing 10 mg riboflavin dissolved in 1000 ml water for 15 min; measured at 545 nm, spectrophotometer (Genesys 20)
# Protocol: 20 mg of coated powder (containing 10 mg of Riboflavin) was dissolved in 1000 ml water for 15 min. Absorption of the solution was measured at 545 nm using a spectrophotometer (Genesys 20, thermo Scientific). Absorption of the solution was 0.065.
# 10 mg of riboflavin powder was dissolved in 1000 ml water for 15 min. Absorption of the solution was measured at 545 nm using a spectrophotometer (Genesys 20, thermo Scientific). Absorption of the solution was 0.386.
# 16.6 mg of coated powder (containing 10 mg of Riboflavin) was dissolved in 1000 ml water for 15 min. Absorption of the solution was measured at 545 nm using a spectrophotometer (Genesys 20, thermo Scientific). Absorption of the solution was 0.087.
smiles,measurement,value
"Cc1cc2nc3c(=O)[nH]c(=O)nc-3n(C[C@H](O)[C@H](O)[C@H](O)CO)c2cc1C [Comparison Example 2, riboflavin]",Absorption of the solution,0.386
